Measured values taken from publication PMC8673761, “CLN7 is an organellar chloride channel regulating lysosomal function” (Science Advances, 2021).
Positions count from the first letter of the chain named.

Assays:
[1] = target: T1, YCR023C (yeast CLN7 homolog) (Saccharomyces cerevisiae, UniProt P25351); assay: whole-cell patch clamp in HeLa, Cl- current; assay type: cell-based, Homo sapiens; settings: EGFP-tagged; bath 150 mM HCl pH 4.6 (NMDG), pipette pH 7.2
T1 construct: full length, codon-optimised synthetic gene, N-terminal EGFP tag kept (pEGFP-C1); expressed in HeLa cells
T1 sequence (P25351 1-611): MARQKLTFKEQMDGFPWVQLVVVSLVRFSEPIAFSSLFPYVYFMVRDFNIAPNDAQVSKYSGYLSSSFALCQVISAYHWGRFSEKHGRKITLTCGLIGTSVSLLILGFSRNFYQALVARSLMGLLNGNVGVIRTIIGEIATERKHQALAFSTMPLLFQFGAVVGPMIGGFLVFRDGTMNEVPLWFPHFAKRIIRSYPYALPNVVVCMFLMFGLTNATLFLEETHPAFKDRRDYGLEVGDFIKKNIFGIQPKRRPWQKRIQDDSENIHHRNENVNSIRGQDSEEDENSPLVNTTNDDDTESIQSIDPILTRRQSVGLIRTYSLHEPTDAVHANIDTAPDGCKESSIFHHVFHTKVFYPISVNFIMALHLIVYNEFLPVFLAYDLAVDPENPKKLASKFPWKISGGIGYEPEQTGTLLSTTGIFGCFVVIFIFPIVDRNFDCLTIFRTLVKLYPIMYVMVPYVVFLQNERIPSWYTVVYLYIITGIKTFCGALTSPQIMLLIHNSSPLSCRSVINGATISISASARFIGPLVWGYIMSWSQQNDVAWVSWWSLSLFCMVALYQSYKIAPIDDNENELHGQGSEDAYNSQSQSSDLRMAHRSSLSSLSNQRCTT

[2] = target: T2, hCLN7 (EGFP-CLN7, MFSD8) (Homo sapiens, UniProt Q8NHS3); assay: whole-endolysosomal patch clamp, Cl- current; assay type: cell-based
T2 construct: full length, 518 residues, N-terminal EGFP tag kept (pEGFP-C2); expressed in HEK293T (endolysosomes); PM-targeted mutant in HeLa
T2 sequence (Q8NHS3 1-518): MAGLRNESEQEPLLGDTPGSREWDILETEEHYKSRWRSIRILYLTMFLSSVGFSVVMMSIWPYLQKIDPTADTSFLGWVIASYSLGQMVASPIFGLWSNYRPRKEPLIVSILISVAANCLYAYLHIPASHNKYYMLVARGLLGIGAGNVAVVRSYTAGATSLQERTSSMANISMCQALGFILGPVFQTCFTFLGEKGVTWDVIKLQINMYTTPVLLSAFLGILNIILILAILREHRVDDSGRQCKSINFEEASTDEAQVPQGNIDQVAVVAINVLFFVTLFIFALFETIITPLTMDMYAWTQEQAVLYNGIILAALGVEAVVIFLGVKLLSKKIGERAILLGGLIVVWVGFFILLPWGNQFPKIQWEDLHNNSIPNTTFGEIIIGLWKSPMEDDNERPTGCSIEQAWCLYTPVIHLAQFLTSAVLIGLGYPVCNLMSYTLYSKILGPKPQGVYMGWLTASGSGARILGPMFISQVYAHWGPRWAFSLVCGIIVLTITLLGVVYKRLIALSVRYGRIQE

[3] = target: T3, hCLN7 (EGFP-CLN7, MFSD8) (Homo sapiens, UniProt Q8NHS3, L13A/L14A); assay: whole-cell patch clamp in HeLa, Cl- current; assay type: cell-based; settings: EGFP-tagged, plasma membrane-targeted; bath 150 mM HCl pH 4.6 (NMDG), pipette pH 7.2
T3 construct: full length, 518 residues, N-terminal EGFP tag kept (pEGFP-C2); expressed in HEK293T (endolysosomes); PM-targeted mutant in HeLa
T3 sequence (Q8NHS3 1-518 L13A/L14A): T2 sequence (Q8NHS3 1-518) with L13A, L14A

In the case of `O=S(=O)(O)c1cc(N=C=S)ccc1/C=C/c1ccc(N=C=S)cc1S(=O)(=O)O` [DIDS, 4,4‘-diisothiocyano-2,2‘-stilbenedisulfonate], the “whole-cell patch clamp in HeLa, Cl- current” value (“whole-cell patch clamp in HeLa” for short) [1] is reported as “including outward rectification and sensitivities to DIDS, NFA, and NPPB” and the IC50 [2] is reported as 32.3 ± 6.08 µM.
`O=C(O)c1cccnc1Nc1cccc(C(F)(F)F)c1` [NFA] was tested, and the “whole-cell patch clamp in HeLa” value [1] was “including outward rectification and sensitivities to DIDS, NFA, and NPPB”, the “whole-cell patch clamp in HeLa” value [3] was “the whole-cell currents were also outward-rectifying and sensitive to pH, DIDS, NFA, and NPPB” and the IC50 [2] was 42.4 ± 7.13 µM.
In the case of `O=C(O)c1cc([N+](=O)[O-])ccc1NCCCc1ccccc1` [NPPB, 5-Nitro-2-(3-phenylpropylamino)benzoic acid], the “whole-cell patch clamp in HeLa” value [1] is reported as “including outward rectification and sensitivities to DIDS, NFA, and NPPB”, the “whole-cell patch clamp in HeLa” value [3] is reported as “the whole-cell currents were also outward-rectifying and sensitive to pH, DIDS, NFA, and NPPB” and the IC50 [2] is reported as 0.0069 ± 0.00157 µM.
